Legend:
[1] = Epimerization of minocycline versus tigecycline lyophilized at pH about 5.0, HPLC; assay type: physicochemical; conditions: lyophilized at pH about 5.0, stored 4 days at 40° C. and 75% relative humidity
Description: In another experiment, minocycline was lyophilized at a pH of about 5.0 and the lyophilized cake was stored for 20 days at 40° C. and 75% relative humidity. At the end of the 20 days, the cake was analyzed by HPLC. The epimer of minocycline was measured to be present at a level of 2.65% by mass. By comparison, when tigecycline was lyophilized at a pH of about 5.0 and the sample stored under the same conditions, but for only 4 days followed by HPLC analysis, the tigecycline epimer was measured to be at a level of 5.40%, over twice as much even though tigecycline was only stressed for ⅕^th as long as minocycline. Thus, tigecycline epimerizes much more readily than minocycline, and epimerization is a much more significant problem with tigecycline than it is for minocycline.

[2] = pH of tigecycline dissolved in water prior to lyophilization; assay type: physicochemical
Description: Tigecycline has such a short admixture time and the reconstitution time is essentially zero because in solution, tigecycline oxidation is relatively rapid. Under current manufacturing, storage, and administration conditions, the most prevalent form of degradation is via oxidation. The reason oxidation is the most prevalent form of degradation in previous formulations relates to the chemical structure of tigecycline. […] When tigecycline is dissolved in water prior to lyophilization, the pH is slightly basic (about 7.8). This is higher than the pKa of the phenolic group on tigecycline. Thus, in both water and saline solutions, the phenolic group becomes deprotonated and more susceptible to reaction with oxygen which is why tigecycline compounding and lyophilization occur under a nitrogen blanket. Accordingly, care to avoid unnecessary exposure to oxygen must be taken by hospital staff during reconstitution and dilution.

[3] = oral; cited from earlier work
[4] = test system: methicillin-resistant Staphylococcus aureus; conditions: cited from earlier work
[5] = test system: penicillin-resistant Streptococcus pneumoniae; conditions: cited from earlier work
[6] = test system: vancomycin-resistant enterococci; conditions: cited from earlier work
[7] = existing composition, 1 mg/mL after dilution; cited from earlier work
bacteria = conditions: compared with tigecycline; cited from earlier work

Compound	level of the tigecycline epimer [1] [%]	pH of solution in water [2]	bioavailability when given orally [3]	activity against methicillin-resistant Staphylococcus aureus [4]	activity against penicillin-resistant Streptococcus pneumoniae [5]	activity against vancomycin-resistant enterococci [6]	time within which the diluted solution should be used [7] [h]	anti-bacterial efficacy (bacteria)
CN(C)c1cc(NC(=O)CNC(C)(C)C)c(O)c2c1C[C@H]1C[C@H]3[C@H](N(C)C)C(O)=C(C(N)=O)C(=O)[C@@]3(O)C(O)=C1C2=O [Tigecycline]	5.40	about 7.8	generally poor	active	active	active	≤ 6	–
CN(C)c1cc(NC(=O)CNC(C)(C)C)c(O)c2c1C[C@H]1C[C@H]3[C@@H](N(C)C)C(O)=C(C(N)=O)C(=O)[C@@]3(O)C(O)=C1C2=O [tigecycline epimer]	–	–	–	–	–	–	–	lacks the anti-bacterial efficacy of tigecycline
